“And” between values parts separate entries of the source, which are not always exact repeats. Equal values may be shown once. One block for each molecule: values may come before it.
Columns and labels:
Oryctolagus cuniculus [1] = species on record: Oryctolagus cuniculus; assay: Intraocular pressure studies in hypertensive pigmented rabbits was performed; assay type: functional; also: test concentration or dose not given here
Oryctolagus cuniculus [2] = species on record: Oryctolagus cuniculus; assay: Intraocular pressure studies in normotensive albino rabbits was performed; assay type: functional; also: test concentration or dose not given here
Oryctolagus cuniculus [3] = species on record: Oryctolagus cuniculus; assay: Intraocular pressure studies in normotensive pigmented rabbits was performed; assay type: functional; also: test concentration or dose not given here
Oryctolagus cuniculus [4] = species on record: Oryctolagus cuniculus; assay: Intraocular pressure studies were performed for the compound and compared with MK-927; assay type: functional; also: test concentration or dose not given here
Carbonic anhydrase 2 [5] = molecular target: T1, Carbonic anhydrase 2 (Homo sapiens, UniProt P00918)
Description: In vitro inhibitory activity against human carbonic anhydrase II

Carbonic anhydrase 2 [6] = molecular target: T1, Carbonic anhydrase 2; remark: listed apart in the source
Description: In vitro binding affinity against human carbonic anhydrase II

physchem [7] = assay: physchem
Description: Dissociation constant (pKa)

physchem [8] = details: octanol/water, pH 7.4
Description: Partition coefficient (logD7.4)

Carbonic anhydrase 2 [9] = molecular target: T1, Carbonic anhydrase 2; remark: listed apart in the source
Description: The compound was tested for in vitro inhibitory activity against human Carbonic anhydrase II

Carbonic anhydrase 2 [10] = molecular target: T1, Carbonic anhydrase 2; remark: listed apart in the source
Description: The compound was tested for in vitro binding affinity against human Carbonic anhydrase II

Carbonic anhydrase 2 [11] = molecular target: T1, Carbonic anhydrase 2; assay: The compound was tested for in vitro inhibitory activity against human carbonic anhydrase II.; details: read-out: I50
Carbonic anhydrase 2 [12] = molecular target: T1, Carbonic anhydrase 2; assay: The compound was tested for in vitro inhibitory activity against human carbonic anhydrase II; details: read-out: I50

Description for Bos taurus: The binding to bovine iris and ciliary body pigment

Structure (SMILES): COC(=O)CSc1sccc1C1OCCO1
IOP (Oryctolagus cuniculus [1]): -2.1 mmHg
IOP (Oryctolagus cuniculus [2]): -1.4 mmHg
IOP (Oryctolagus cuniculus [3]): -1.6 mmHg
IOP (Oryctolagus cuniculus [4]): -3.9 mmHg and -4.8 mmHg

Structure (SMILES): COCCOCCN(CCOC)C(Cc1ccc(F)cc1)c1cc2cc(S(N)(=O)=O)sc2s1 (centres undefined)
IC50 (Carbonic anhydrase 2 [5]): 1.15 nM
Ki (Carbonic anhydrase 2 [6]): 6.54 nM

Structure (SMILES): OCc1cc2ccsc2s1
IOP (Oryctolagus cuniculus [2]): -3 mmHg

Structure (SMILES): NS(=O)(=O)c1cc2cc(CN3CC[S+]([O-])CC3)sc2s1
IC50 (Carbonic anhydrase 2 [5]): 4 nM
Ki (Carbonic anhydrase 2 [6]): 3.4 nM
pKa (physchem [7]): 4.23
logD (physchem [8]): 0.111

Structure (SMILES): O=Cc1cc2ccsc2s1
IOP (Oryctolagus cuniculus [2]): -1.3 mmHg
IOP (Oryctolagus cuniculus [3]): -1.6 mmHg

Structure (SMILES): Cl.NS(=O)(=O)c1cc2cc(CN3CCOCC3)sc2s1
IC50 (Carbonic anhydrase 2 [5]): 3 nM
Ki (Carbonic anhydrase 2 [6]): 1.1 nM
Pigment binding (Bos taurus): 42.9%
pKa (physchem [7]): 5.25
logD (physchem [8]): 1.17

Structure (SMILES): CC(C=O)N(Cc1cc2cc(S(N)(=O)=O)sc2s1)C(C)C=O.Cl (centres undefined)
IC50 (Carbonic anhydrase 2 [9]): 2.71 nM
Ki (Carbonic anhydrase 2 [10]): 1.49 nM
Pigment binding (Bos taurus): 49.7%
pKa (physchem [7]): 5.75
logD (physchem [8]): 1.17

Structure (SMILES): COCCOCCN(CCOC)C(C)c1cc2cc(S(N)(=O)=O)sc2s1 (centres undefined)
IC50 (Carbonic anhydrase 2 [5]): 0.5 nM
Ki (Carbonic anhydrase 2 [6]): 1.54 nM

Structure (SMILES): COCCOCCN(CCOC)Cc1cc2cc(S(N)(=O)=O)sc2s1.Cl
IOP (Oryctolagus cuniculus [1]): -4.4 mmHg
IOP (Oryctolagus cuniculus [2]): -3.3 mmHg
IOP (Oryctolagus cuniculus [3]): -4.8 mmHg
IOP (Oryctolagus cuniculus [4]): -5.3 mmHg
IC50 (Carbonic anhydrase 2 [5]): 2.8 nM
Ki (Carbonic anhydrase 2 [6]): 1.58 nM
Pigment binding (Bos taurus): 38.5%
pKa (physchem [7]): 5.55
logD (physchem [8]): 1.14

Structure (SMILES): CC(C)CNCc1cc2sc(S(N)(=O)=O)cc2s1.Cl
IC50 (Carbonic anhydrase 2 [5]): 2.8 nM
Ki (Carbonic anhydrase 2 [6]): 2.7 nM
Pigment binding (Bos taurus): 86.5%
pKa (physchem [7]): 7.6
logD (physchem [8]): 1.24

Structure (SMILES): COCCOCCCNCc1cc2cc(S(N)(=O)=O)sc2s1.Cl
IC50 (Carbonic anhydrase 2 [5]): 6.5 nM
Pigment binding (Bos taurus): 87.5%
pKa (physchem [7]): 7.4
logD (physchem [8]): -0.137

Structure (SMILES): Cl.NS(=O)(=O)c1cc2cc(CNCCF)sc2s1
IC50 (Carbonic anhydrase 2 [5]): 2.7 nM
Ki (Carbonic anhydrase 2 [6]): 1.98 nM
Pigment binding (Bos taurus): 81.9%
pKa (physchem [7]): 6.4
logD (physchem [8]): 0.702

Structure (SMILES): Cl.NS(=O)(=O)c1cc2cc(C(=O)NCCN3CCSCC3)sc2s1
IC50 (Carbonic anhydrase 2 [5]): 2.9 nM
Ki (Carbonic anhydrase 2 [6]): 4.02 nM
Pigment binding (Bos taurus): 96.4%
pKa (physchem [7]): 6.03
logD (physchem [8]): 1.5

Structure (SMILES): COCCN(CCOC)Cc1cc2sc(S(N)(=O)=O)cc2s1.Cl
IC50 (Carbonic anhydrase 2 [5]): 2.5 nM
Ki (Carbonic anhydrase 2 [6]): 0.95 nM
Pigment binding (Bos taurus): 41.4%
pKa (physchem [7]): 5.48
logD (physchem [8]): 1.56

Structure (SMILES): Cl.NS(=O)(=O)c1cc2cc(C(=O)NCCN3CCOCC3)sc2s1
IC50 (Carbonic anhydrase 2 [5]): 2.9 nM
Ki (Carbonic anhydrase 2 [6]): 6.38 nM
Pigment binding (Bos taurus): 91.6%
pKa (physchem [7]): 5.8
logD (physchem [8]): 0.587

Structure (SMILES): CNCc1cc2sc(S(N)(=O)=O)cc2s1.Cl
IC50 (Carbonic anhydrase 2 [5]): 3.2 nM
Ki (Carbonic anhydrase 2 [6]): 11.8 nM
Pigment binding (Bos taurus): 87.3%
pKa (physchem [7]): 7.65
logD (physchem [8]): -0.495

Structure (SMILES): C[S+]([O-])CCNCc1cc2cc(S(N)(=O)=O)sc2s1.Cl (centres undefined)
IC50 (Carbonic anhydrase 2 [5]): 8.4 nM
Ki (Carbonic anhydrase 2 [6]): 5.5 nM
Pigment binding (Bos taurus): 67.5%
pKa (physchem [7]): 5.58
logD (physchem [8]): -0.444

Structure (SMILES): Cl.NS(=O)(=O)c1cc2cc(CNCC(F)(F)F)sc2s1
IC50 (Carbonic anhydrase 2 [5]): 2.2 nM
Pigment binding (Bos taurus): 21.1%
pKa (physchem [7]): 3.75

Structure (SMILES): COCCOCCNC(C)c1cc2cc(S(N)(=O)=O)sc2s1.Cl (centres undefined)
IC50 (Carbonic anhydrase 2 [12]): 0.7 nM
Ki (Carbonic anhydrase 2 [6]): 3.05 nM
Pigment binding (Bos taurus): 71.9%
pKa (physchem [7]): 7.13
logD (physchem [8]): 0.708

Structure (SMILES): NS(=O)(=O)c1cc2cc(CNCC3CC3)sc2s1
IC50 (Carbonic anhydrase 2 [5]): 3.3 nM
Ki (Carbonic anhydrase 2 [6]): 6.7 nM
pKa (physchem [7]): 7.72
logD (physchem [8]): 0.398

Structure (SMILES): COCCN(CCOC)Cc1cc2cc(S(N)(=O)=O)sc2s1.Cl
IOP (Oryctolagus cuniculus [2]): -2.6 mmHg
IOP (Oryctolagus cuniculus [3]): -4.1 mmHg
IOP (Oryctolagus cuniculus [4]): -4.6 mmHg
IC50 (Carbonic anhydrase 2 [5]): 4.2 nM
Ki (Carbonic anhydrase 2 [6]): 1.34 nM
Pigment binding (Bos taurus): 50%
pKa (physchem [7]): 5.34
logD (physchem [8]): 1.58

Structure (SMILES): Cl.NS(=O)(=O)c1cc2cc(CN3CCSCC3)sc2s1
IC50 (Carbonic anhydrase 2 [5]): 2.6 nM
Ki (Carbonic anhydrase 2 [6]): 0.44 nM
Pigment binding (Bos taurus): 69.9%
pKa (physchem [7]): 5.05
logD (physchem [8]): 1.14

Structure (SMILES): COCCOCCN(CCOCCOC)Cc1cc2cc(S(N)(=O)=O)sc2s1.Cl
IC50 (Carbonic anhydrase 2 [9]): 3.95 nM
Ki (Carbonic anhydrase 2 [10]): 2.77 nM
Pigment binding (Bos taurus): 40.3%
pKa (physchem [7]): 5.72
logD (physchem [8]): 0.992

Structure (SMILES): COCCNCc1cc2sc(S(N)(=O)=O)cc2s1.Cl
IC50 (Carbonic anhydrase 2 [5]): 2.8 nM
Ki (Carbonic anhydrase 2 [6]): 3.1 nM
Pigment binding (Bos taurus): 81.9%
pKa (physchem [7]): 6.65
logD (physchem [8]): 0.509

The next lines start with results.

IC50 (Carbonic anhydrase 2 [5]): 14 nM
pKa (physchem [7]): 7.3
Structure (SMILES): NCc1cc2cc(S(N)(=O)=O)sc2s1
Pigment binding (Bos taurus): 92%

IC50 (Carbonic anhydrase 2 [5]): 6.6 nM
Ki (Carbonic anhydrase 2 [6]): 9 nM
Structure (SMILES): NS(=O)(=O)c1cc2cc(C(=O)N(CCO)CCO)sc2s1

IC50 (Carbonic anhydrase 2 [5]): 3.2 nM
Ki (Carbonic anhydrase 2 [6]): 3.4 nM
logD (physchem [8]): -0.347
Structure (SMILES): NS(=O)(=O)c1cc2cc(C(=O)NCC(O)CO)sc2s1 (centres undefined)
Pigment binding (Bos taurus): 36.7%

IC50 (Carbonic anhydrase 2 [5]): 2.5 nM
Ki (Carbonic anhydrase 2 [6]): 4.4 nM
pKa (physchem [7]): 7.9
logD (physchem [8]): 0.924
Structure (SMILES): CC(C)CNCc1cc2cc(S(N)(=O)=O)sc2s1

IC50 (Carbonic anhydrase 2 [9]): 4.5 nM
Ki (Carbonic anhydrase 2 [10]): 4.8 nM
pKa (physchem [7]): 5.2
logD (physchem [8]): -0.26
Structure (SMILES): CS(=O)(=O)CCNCc1cc2cc(S(N)(=O)=O)sc2s1.Cl
Pigment binding (Bos taurus): 56.8%

IC50 (Carbonic anhydrase 2 [11]): 10 nM
Ki (Carbonic anhydrase 2 [6]): 36.8 nM
pKa (physchem [7]): 8.28
logD (physchem [8]): -0.0757
Structure (SMILES): CC(C)(C)NCc1cc2cc(S(N)(=O)=O)sc2s1

IC50 (Carbonic anhydrase 2 [5]): 4.6 nM
Ki (Carbonic anhydrase 2 [6]): 2.39 nM
logD (physchem [8]): -0.155
Structure (SMILES): C[S+]([O-])CCNC(=O)c1cc2cc(S(N)(=O)=O)sc2s1 (centres undefined)
Pigment binding (Bos taurus): 35.6%

pKa (physchem [7]): 5.2
Structure (SMILES): CNC(=O)c1cc2cc(S(N)(=O)=O)sc2s1

IC50 (Carbonic anhydrase 2 [5]): 2.5 nM
Structure (SMILES): COCCN(CCNC(=O)c1cc2cc(S(N)(=O)=O)sc2s1)CCOC.Cl
Pigment binding (Bos taurus): 87.5%

IC50 (Carbonic anhydrase 2 [5]): 4.9 nM
pKa (physchem [7]): 7.52
logD (physchem [8]): 0.204
Structure (SMILES): COCCCNCc1cc2cc(S(N)(=O)=O)sc2s1.Cl
Pigment binding (Bos taurus): 85.4%

IC50 (Carbonic anhydrase 2 [5]): 8.4 nM
pKa (physchem [7]): 6.95
Structure (SMILES): NS(=O)(=O)c1cc2cc(CNC(CO)CO)sc2s1

IC50 (Carbonic anhydrase 2 [5]): 5 nM
Ki (Carbonic anhydrase 2 [6]): 3.9 nM
pKa (physchem [7]): 7
logD (physchem [8]): 0.324
Structure (SMILES): COCCNCc1cc2cc(S(N)(=O)=O)sc2s1.Cl
Pigment binding (Bos taurus): 88%

IC50 (Carbonic anhydrase 2 [5]): 6.3 nM
pKa (physchem [7]): 7.18
logD (physchem [8]): -0.721
Structure (SMILES): NS(=O)(=O)c1cc2cc(CNCCO)sc2s1

IC50 (Carbonic anhydrase 2 [5]): 2.27 nM
Ki (Carbonic anhydrase 2 [6]): 2.6 nM
pKa (physchem [7]): 5.5
logD (physchem [8]): 0.23
Structure (SMILES): Cl.NS(=O)(=O)c1cc2cc(CN(CCO)CCO)sc2s1
Pigment binding (Bos taurus): 71.8%

IC50 (Carbonic anhydrase 2 [5]): 3 nM
Ki (Carbonic anhydrase 2 [10]): 20.9 nM
pKa (physchem [7]): 8.02
logD (physchem [8]): -0.538
Structure (SMILES): CNCc1cc2cc(S(N)(=O)=O)sc2s1.Cl
Pigment binding (Bos taurus): 92.1%

IC50 (Carbonic anhydrase 2 [5]): 3 nM
pKa (physchem [7]): 7.7
logD (physchem [8]): -0.678
Structure (SMILES): NS(=O)(=O)c1cc2cc(CNCCCCO)sc2s1

IC50 (Carbonic anhydrase 2 [5]): 8.8 nM
Ki (Carbonic anhydrase 2 [6]): 11 nM
pKa (physchem [7]): 7.48
logD (physchem [8]): -0.398
Structure (SMILES): CN(C)CCNC(=O)c1cc2cc(S(N)(=O)=O)sc2s1.Cl
Pigment binding (Bos taurus): 97%

Source: ChEMBL document CHEMBL1125927, “New isomeric classes of topically active ocular hypotensive carbonic anhydrase inhibitors: 5-substituted thieno[2,3-b]thiophene-2-sulfonamides and 5-substituted thieno[3,2-b]thiophene-2-sulfonamides” (J Med Chem, 1991)
